The values below come from patent publication US11066693B2, “Methods for diagnosing LHRH or hCG/LH receptor expressing tumors, cancers and neoplasias” (ESPERANCE PHARMACEUTICALS, INC., priority 2009, dated 2021).

Broadly, the IC50 is the concentration at which inhibition is half-maximal.

Ends that are not written are not given here.

In data set [1] the test system is MDA-MB-231 human breast cancer cell line. The experiment in a line: In vitro cytotoxicity, MTT cell viability assay. Format: cell-based. The method, then:
Incubations were conducted for 24 h at 37° C.
(In general: Tetrazolium assays rely on reduction of a dye to a coloured formazan, in cell work by metabolically active cells.)

The subject of data set [2] is AN3-CA human endometrial cancer cell line. The note with it: read-out: Cytotoxicity evaluated as IC50 value, 24 h at 37° C., MTT.
Protocol: (§1) Studies were designed to test receptor specificity, correlation of sensitivity to LHRH receptor expression and initial efficacy kinetics in vitro by comparing targeted kinetics to untargeted kinetics. […] Cytotoxicity was evaluated as IC50 value for each cell line.
(§2) Cell cultures were prepared in 96 well plates using 10,000 cells/well and were allowed to attach for 48 hours. […] Incubations were conducted for 24 h at 37° C. Cell viability was determined using formazan conversion assays (MTT assays). Controls contained USP saline or 0.1% TritonX-100™ as reference for 0 and 100% cell death, respectively.
(§3) Data were processed and analyzed using Graph Pad Prizm 4™ software (Graph Pad Prizm, Inc). Statistical analysis for significance was determined by a two-tailed Student's T-test.
Data set [3] concerns OVCAR-3 ovarian cancer cell line. The following applies: read-out: Cytotoxicity evaluated as IC50 value; OVCAR-3, 24 h at 37° C., MTT.
Protocol: as §1, §2, §3
Data set [4] deals with LNCaP prostate cancer cell line. The following applies: read-out: Cytotoxicity evaluated as IC50 value, 24 h at 37° C., MTT.
Protocol: as §1, §2, §3
For data set [5], the system named is PC-3 prostate cancer cell line. The note with it: read-out: Cytotoxicity evaluated as IC50 value; PC-3, 24 h at 37° C., MTT.
Protocol: as §1, §2, §3
In data set [6] the test system is MDA-MB-4355 breast cancer cell line. The note with it: read-out: Cytotoxicity evaluated as IC50 value; MDA-MB-4355, highest LHRH receptor capacity, 24 h at 37° C., MTT.
Protocol: as §1, §2, §3
The subject of data set [7] is SKOV-3 LHRH receptor negative ovarian cancer cell line. The note with it: read-out: Cytotoxicity evaluated as IC50 value, 24 h at 37° C., MTT.
Protocol: as §1, §2, §3

On to `N.N.[Cl][Pt][Cl]` [cisplatinum, reference compound], for which the “Sensitivity of cell line to the drug” value in data set [1] (MDA-MB-231, multi drug resistant) is recorded as “insensitive”.

With KFAKFAKKFAKFAKKFAKQHWSYGLRPG [EP-100], the IC50 in data set [1] (MDA-MB-231 (ER, Her2/neu, PR negative, multi drug resistant), 24 h at 37° C., MTT, read-out: Cytotoxicity evaluated as IC50 value) was found to be 5.5 µM; in data set [2], 3.3 µM; in data set [3] it was 3 µM; in data set [4], 1.5 µM; in data set [5], 5.5 µM; in data set [6], 0.8 µM. The IC50 in data set [7] is more than 10 µM.
